Here are results for two compounds from patent publication US20230108934A1, “Stabilizing Camptothecin Pharmaceutical Compositions” (Ipsen Biopharm Ltd., priority 2015, published 2023).

Data set [1] can be described thus: Solubility determination of irinotecan sucrosofate in water. The following applies: deionized water, 4-6° C., 22 hours. The data set is classed as physicochemical. As to the method: An amount of 1.64 g of irinotecan hydrochloride trihydrate was added to 160 mL of water acidified with 0.008 mL of 1 N HCl, and heated on a 65° C. water bath with stirring until the drug was dissolved. Five mL of 0.46 M (based on sulfate concentration) triethylammonium sucrosofate were added with intensive stirring, and stirred for five minutes more. […] The precipitate was separated by centrifugation, and the supernatant solution was discarded. The pellet was resuspended in five volumes of deionized water, and precipitated by centrifugation; this washing step was repeated two more times until the pH of the suspension was about 5.8. […] An aliquot of the product was solubilized in 1 N HCl and analyzed for irinotecan (by spectrophotometry at 365 nm in 70% aqueous isopropanol-0.1 N HCl) and for sulfate after hydrolysis in a diluted (1:4) perchloric acid using a barium sulfate turbidimetric assay. […] The samples were incubated with agitation at 4-6° C. for 22 hours, the solid material was removed by centrifugation for 10 min at 14000 g, and the supernatant fluid was analyzed for irinotecan by spectrophotometry.

The conditions of data set [2]: cited from earlier work.

Where two headings read alike, the source gives them in different places.

On to `CCc1c2c(nc3ccc(OC(=O)N4CCC(N5CCCCC5)CC4)cc13)-c1cc3c(c(=O)n1C2)COC(=O)[C@]3(O)CC` [irinotecan sucrosofate], for which the “concentration of irinotecan in solution” value was found to be 58.9±0.90 micro-g/mL in data set [1] (final drug salt concentration 0.93 mg/mL), 63.2±0.6 micro-g/mL in data set [1] (final drug salt concentration 1.85 mg/mL) and 63.4±1.3 micro-g/mL in data set [1] (final drug salt concentration 3.71 mg/mL).
Turning to `CCc1c2c(nc3ccc(OC(=O)N4CCC(N5CCCCC5)CC4)cc13)-c1cc3c(c(=O)n1C2)COC(=O)[C@]3(O)CC` [irinotecan], the “irinotecan in the more active lactone form” value in data set [2] (pH 6.0) is on record as “about 85%”; in data set [2] (pH 6.5), “about 65%”; in data set [2] (pH 7.5), “about 15%”.
